Like-named read-outs stand apart in the source and are kept apart here.
Experiments:
[1] = in vitro; settings: dog, plasma
[2] = Metabolite ID in plasma; type: in vitro ADME; settings: HBI-2375 and metabolites in Dog plasma
[3] = molecular target: POLQ ATPase (Homo sapiens, UniProt O75417); test: Selectivity panel (Table 3); type: biochemical
[4] = molecular target: T1, BRD4-BD2 (Homo sapiens, UniProt O60885); test: Selectivity panel (Table 3); type: binding
T1 construct: BRD4-BD2

[5] = molecular target: WIP 1 (Homo sapiens, UniProt O15297); test: Selectivity panel (Table 3); type: biochemical
[6] = molecular target: KRAS WT (Homo sapiens, UniProt P01116); test: Selectivity panel (Table 3); type: binding
[7] = Metabolite ID in Liver S9; type: in vitro ADME; settings: HBI-2375 and metabolites in Human liver S9
[8] = molecular target: POLQPolymerase (Homo sapiens, UniProt O75417); test: Selectivity panel (Table 3); type: biochemical
[9] = PK profile of HBI-2375 in plasma, brain and CSF in SD rats; type: in vivo; settings: for AUC(0-t) / Cmax / MRT last / Tmax / Kp: rat; for Kp: po, 40 mg/kg, read-out: AUClast Ratio Tissue/Plasma
Protocol: EXAMPLE 3: PK profile of HBI-2375 (compound of Formula (IIIb) (HYBI-084) in plasma, brain, and cerebrospinal fluid (CSF) in SD rats: This study was conducted in accordance with the Study Protocol and Pharmaron (Ningbo) TSP's Standard Operating Procedures (SOPs) following all regulatory protocols. This study was conducted under non-GLP environment.
The maximal concentrations of HBI-2375 in CSF for males and females were at 1 hr post-dose. The maximal concentrations of HBI-2375 in brain were at 15 min post-dose for males and at 1 hr post-dose for females. The mean values of AUClast for HBI-2375 from high to low were: brain>plasma>CSF for males, and plasma>brain>CSF for females.
Following a single oral gavage administration of HBI-2375 at 40 mg/kg in SD rats, concentrations of HBI-2375 in plasma, brain, and CSF were determined by LC-MS/MS methods. […] The maximal concentrations of HBI-2375 in CSF for males and females were at 1 hr post-dose. The maximal concentrations of HBI-2375 in brain were at 15 min post-dose for males and at 1 hr post-dose for females.

[10] = molecular target: HDAC3 (Homo sapiens, UniProt O15379); test: Selectivity panel (Table 3); type: biochemical
[11] = molecular target: KRAS G12V (Homo sapiens, UniProt P01116, G12V); test: Selectivity panel (Table 3); type: binding
[12] = molecular target: KRAS G12C (Homo sapiens, UniProt P01116, G12C); test: Selectivity panel (Table 3); type: binding
[13] = Metabolite ID in plasma; type: in vitro ADME; settings: HBI-2375 and metabolites in Human plasma
[14] = molecular target: MALTI (Homo sapiens, UniProt Q9UDY8); test: Selectivity panel (Table 3); type: biochemical
[15] = molecular target: CD73 (Homo sapiens, UniProt P21589); test: Selectivity panel (Table 3); type: biochemical
[16] = molecular target: GLS1 (Homo sapiens, UniProt O94925); test: Selectivity panel (Table 3); type: biochemical
[17] = molecular target: PD-1/PD-L1 (Homo sapiens, UniProt Q9NZQ7); test: Selectivity panel (Table 3); type: binding
[18] = molecular target: PRMT5 (Homo sapiens, UniProt O14744); test: Selectivity panel (Table 3); type: biochemical
[19] = in vitro; settings: mouse, plasma
[20] = molecular target: TEAD4 (Homo sapiens, UniProt Q15561); test: Selectivity panel (Table 3); type: binding
[21] = Sprague-Dawley, SD rats, single PO 40 mg/kg, CSF, female
[22] = Sprague-Dawley, SD rats, single PO 40 mg/kg, CSF, male
[23] = Sprague-Dawley, SD rats, single PO 40 mg/kg, brain, female
[24] = Sprague-Dawley, SD rats, single PO 40 mg/kg, brain, male
[25] = Sprague-Dawley, SD rats, single PO 40 mg/kg, plasma, female
[26] = Sprague-Dawley, SD rats, single PO 40 mg/kg, plasma, male
[27] = both sexes, SD rats, single PO 40 mg/kg, brain, mean of male and female
[28] = both sexes, SD rats, single PO 40 mg/kg, plasma, mean of male and female

PD-1/PD-L1, sequence (Q9NZQ7 19-238 limits assumed): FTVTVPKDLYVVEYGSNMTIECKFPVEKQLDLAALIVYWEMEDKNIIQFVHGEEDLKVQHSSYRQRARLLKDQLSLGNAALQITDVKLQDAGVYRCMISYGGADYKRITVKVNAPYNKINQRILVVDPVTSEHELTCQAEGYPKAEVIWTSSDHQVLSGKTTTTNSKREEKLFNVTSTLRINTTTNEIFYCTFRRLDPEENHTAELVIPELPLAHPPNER
WIP 1, sequence (O15297 whole entry, species assumed): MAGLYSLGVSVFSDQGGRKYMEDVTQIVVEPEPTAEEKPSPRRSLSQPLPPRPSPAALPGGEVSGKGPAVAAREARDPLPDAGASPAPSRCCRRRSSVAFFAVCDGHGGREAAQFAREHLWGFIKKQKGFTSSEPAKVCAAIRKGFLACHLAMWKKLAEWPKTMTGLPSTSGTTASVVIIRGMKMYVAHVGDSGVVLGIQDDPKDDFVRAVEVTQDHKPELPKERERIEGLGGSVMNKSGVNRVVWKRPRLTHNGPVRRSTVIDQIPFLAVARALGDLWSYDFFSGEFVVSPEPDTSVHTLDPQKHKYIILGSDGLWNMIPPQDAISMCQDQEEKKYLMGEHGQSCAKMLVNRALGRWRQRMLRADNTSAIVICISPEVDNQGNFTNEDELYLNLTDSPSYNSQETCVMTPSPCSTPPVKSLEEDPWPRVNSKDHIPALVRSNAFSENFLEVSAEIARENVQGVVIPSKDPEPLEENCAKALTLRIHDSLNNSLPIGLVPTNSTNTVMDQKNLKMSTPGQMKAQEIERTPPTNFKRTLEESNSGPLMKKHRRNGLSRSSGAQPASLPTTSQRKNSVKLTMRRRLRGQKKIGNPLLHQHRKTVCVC
GLS1, sequence (O94925 73-669 limits assumed, species assumed): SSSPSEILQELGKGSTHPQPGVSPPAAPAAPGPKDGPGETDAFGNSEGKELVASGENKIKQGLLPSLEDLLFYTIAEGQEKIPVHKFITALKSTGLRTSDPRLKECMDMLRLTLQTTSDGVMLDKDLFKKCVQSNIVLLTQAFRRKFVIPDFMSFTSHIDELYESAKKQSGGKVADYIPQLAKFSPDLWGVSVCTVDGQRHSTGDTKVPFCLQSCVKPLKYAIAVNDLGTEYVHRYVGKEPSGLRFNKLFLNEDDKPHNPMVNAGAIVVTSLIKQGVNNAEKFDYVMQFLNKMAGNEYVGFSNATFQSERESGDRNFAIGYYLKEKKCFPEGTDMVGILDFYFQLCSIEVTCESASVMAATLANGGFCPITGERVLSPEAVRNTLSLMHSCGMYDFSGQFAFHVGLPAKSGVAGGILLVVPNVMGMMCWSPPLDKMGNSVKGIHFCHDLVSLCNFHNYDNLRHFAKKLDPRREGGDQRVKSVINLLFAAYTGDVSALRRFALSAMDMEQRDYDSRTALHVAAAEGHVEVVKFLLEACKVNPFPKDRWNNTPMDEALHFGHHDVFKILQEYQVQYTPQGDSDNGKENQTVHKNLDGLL
PRMT5, sequence (O14744 whole entry, species assumed): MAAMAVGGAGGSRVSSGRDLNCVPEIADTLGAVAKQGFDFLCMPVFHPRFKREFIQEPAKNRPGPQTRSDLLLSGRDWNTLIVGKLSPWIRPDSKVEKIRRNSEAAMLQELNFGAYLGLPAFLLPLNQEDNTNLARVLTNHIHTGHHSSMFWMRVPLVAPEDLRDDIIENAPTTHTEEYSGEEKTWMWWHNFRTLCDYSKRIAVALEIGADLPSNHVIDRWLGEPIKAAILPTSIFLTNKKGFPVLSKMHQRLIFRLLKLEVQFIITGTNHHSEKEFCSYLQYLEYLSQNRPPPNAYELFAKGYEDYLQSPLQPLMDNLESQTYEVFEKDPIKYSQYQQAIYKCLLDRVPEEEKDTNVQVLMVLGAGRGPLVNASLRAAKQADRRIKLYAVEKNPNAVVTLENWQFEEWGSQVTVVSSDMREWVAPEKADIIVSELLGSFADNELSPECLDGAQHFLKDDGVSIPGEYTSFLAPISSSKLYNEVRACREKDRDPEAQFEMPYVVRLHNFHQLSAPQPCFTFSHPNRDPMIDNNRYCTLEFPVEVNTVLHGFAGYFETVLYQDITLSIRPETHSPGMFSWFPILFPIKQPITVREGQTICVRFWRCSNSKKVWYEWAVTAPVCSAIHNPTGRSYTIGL
PRMT5, sequence (Q9BQA1 whole entry partner, species assumed): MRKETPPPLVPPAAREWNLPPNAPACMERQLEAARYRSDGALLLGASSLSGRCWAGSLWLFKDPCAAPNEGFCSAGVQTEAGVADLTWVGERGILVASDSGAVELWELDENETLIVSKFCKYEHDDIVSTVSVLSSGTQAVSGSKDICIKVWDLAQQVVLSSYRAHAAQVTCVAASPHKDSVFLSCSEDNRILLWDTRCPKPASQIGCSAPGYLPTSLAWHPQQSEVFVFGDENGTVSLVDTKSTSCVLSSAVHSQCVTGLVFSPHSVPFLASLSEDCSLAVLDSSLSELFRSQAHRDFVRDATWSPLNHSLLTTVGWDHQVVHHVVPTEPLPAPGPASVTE
POLQPolymerase, sequence (O75417 whole entry): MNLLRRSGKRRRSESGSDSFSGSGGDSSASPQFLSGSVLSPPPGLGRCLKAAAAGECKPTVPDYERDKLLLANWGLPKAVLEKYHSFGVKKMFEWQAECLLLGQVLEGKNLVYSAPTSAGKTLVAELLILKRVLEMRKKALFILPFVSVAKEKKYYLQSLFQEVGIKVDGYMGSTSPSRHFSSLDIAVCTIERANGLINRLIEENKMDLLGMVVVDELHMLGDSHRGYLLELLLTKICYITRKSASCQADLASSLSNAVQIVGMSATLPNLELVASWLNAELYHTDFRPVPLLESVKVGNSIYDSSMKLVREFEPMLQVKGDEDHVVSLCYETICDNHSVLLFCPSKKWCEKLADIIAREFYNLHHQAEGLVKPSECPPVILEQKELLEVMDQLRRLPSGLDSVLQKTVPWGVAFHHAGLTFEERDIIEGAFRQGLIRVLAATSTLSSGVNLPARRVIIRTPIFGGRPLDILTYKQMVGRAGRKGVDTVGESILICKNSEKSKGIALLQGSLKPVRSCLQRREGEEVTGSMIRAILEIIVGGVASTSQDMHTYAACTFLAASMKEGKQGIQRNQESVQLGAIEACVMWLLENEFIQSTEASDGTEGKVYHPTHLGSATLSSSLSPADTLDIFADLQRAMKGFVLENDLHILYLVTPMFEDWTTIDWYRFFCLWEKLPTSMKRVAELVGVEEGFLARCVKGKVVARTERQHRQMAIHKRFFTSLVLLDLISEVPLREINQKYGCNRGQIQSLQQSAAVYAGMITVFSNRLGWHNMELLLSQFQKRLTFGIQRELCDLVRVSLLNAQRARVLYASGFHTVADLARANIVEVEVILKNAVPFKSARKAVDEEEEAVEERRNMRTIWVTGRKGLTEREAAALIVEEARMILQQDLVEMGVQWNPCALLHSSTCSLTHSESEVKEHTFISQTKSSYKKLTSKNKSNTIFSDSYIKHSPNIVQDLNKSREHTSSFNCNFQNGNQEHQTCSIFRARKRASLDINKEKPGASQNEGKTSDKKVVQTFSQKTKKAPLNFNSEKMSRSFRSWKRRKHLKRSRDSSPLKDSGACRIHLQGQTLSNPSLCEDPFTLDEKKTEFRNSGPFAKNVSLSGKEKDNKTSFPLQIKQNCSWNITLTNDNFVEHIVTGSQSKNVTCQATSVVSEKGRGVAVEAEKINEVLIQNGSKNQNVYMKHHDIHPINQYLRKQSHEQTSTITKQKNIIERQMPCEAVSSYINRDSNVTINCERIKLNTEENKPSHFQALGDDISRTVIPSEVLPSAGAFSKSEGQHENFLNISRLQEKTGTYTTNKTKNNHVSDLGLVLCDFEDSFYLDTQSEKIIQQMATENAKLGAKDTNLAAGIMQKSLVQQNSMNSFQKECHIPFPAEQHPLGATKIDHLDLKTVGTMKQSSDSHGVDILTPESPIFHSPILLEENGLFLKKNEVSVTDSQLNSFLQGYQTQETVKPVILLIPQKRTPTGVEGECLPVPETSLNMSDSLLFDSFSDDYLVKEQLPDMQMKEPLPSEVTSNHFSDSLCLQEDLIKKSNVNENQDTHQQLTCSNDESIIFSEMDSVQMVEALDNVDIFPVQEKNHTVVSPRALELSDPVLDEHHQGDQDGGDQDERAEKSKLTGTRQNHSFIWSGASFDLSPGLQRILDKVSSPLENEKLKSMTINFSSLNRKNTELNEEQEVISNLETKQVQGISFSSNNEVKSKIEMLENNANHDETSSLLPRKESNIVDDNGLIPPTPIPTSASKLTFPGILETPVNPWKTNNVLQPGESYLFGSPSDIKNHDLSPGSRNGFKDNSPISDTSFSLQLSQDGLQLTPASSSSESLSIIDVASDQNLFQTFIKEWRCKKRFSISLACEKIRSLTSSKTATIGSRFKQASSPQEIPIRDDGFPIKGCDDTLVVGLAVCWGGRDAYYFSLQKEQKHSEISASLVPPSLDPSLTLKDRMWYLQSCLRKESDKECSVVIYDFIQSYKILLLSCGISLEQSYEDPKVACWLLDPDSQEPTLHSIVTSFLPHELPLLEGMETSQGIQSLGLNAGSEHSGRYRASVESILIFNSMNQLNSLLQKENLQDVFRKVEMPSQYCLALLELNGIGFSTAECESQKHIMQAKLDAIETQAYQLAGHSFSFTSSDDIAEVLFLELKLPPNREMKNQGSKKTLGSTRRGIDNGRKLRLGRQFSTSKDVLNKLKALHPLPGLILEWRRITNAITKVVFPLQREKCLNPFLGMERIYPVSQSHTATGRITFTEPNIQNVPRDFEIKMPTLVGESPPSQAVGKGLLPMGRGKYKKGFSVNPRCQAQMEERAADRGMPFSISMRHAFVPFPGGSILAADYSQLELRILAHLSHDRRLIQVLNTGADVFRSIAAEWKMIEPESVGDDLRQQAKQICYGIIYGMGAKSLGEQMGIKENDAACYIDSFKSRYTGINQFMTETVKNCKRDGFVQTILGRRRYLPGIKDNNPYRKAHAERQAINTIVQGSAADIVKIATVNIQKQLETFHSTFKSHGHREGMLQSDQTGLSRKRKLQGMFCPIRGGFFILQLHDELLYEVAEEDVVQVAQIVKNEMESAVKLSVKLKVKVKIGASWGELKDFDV
POLQ ATPase, sequence (O75417 whole entry): as above

Cc1c(F)c(N)cc(C(=O)Nc2cc(-n3cc(C(=O)N4CCN(C)CC4)nn3)c(F)cc2N2C[C@@H](C)N(C)[C@@H](C)C2)c1Cl [HYBI-084, 5-amino-2-chloro-4-fluoro-N-(4-fluoro-5-(4-(4-methylpiperazine-1-carbonyl)-1H-1,2,3-triazol-1-yl)-2-((3S,5R)-3,4,5-trimethylpiperazin-1-yl)phenyl)-3-methylbenzamide]
fraction unbound [1]: < 0.24 | Relative Abundance (UV Peak Area % Total) [2]: 97.31% | IC50 [3]: > 1000 nM | IC50 [4]: > 1000 nM | IC50 [5]: > 1000 nM | IC50 [6]: > 1000 nM | Relative Abundance (UV Peak Area % Total) [7]: 78.70% | IC50 [8]: > 1000 nM | AUClast Ratio Female/Male ([9]; SD rats, 40 mg/kg PO, CSF): 6.66 | C24hr/Cmax Ratio (%) ([9]; SD rats, 40 mg/kg PO, CSF, female): 11.6% | AUClast Ratio Tissue/Plasma ([9]; SD rats, 40 mg/kg PO, CSF/plasma, male, listed as HBI-2375, 40 mg/kg): 0.0111 | AUClast Ratio Female/Male ([9]; SD rats, 40 mg/kg PO, brain): 1.54 | C24hr/Cmax Ratio (%) ([9]; SD rats, 40 mg/kg PO, brain, female): 3.24% | C24hr/Cmax Ratio (%) ([9]; SD rats, 40 mg/kg PO, brain, male): 4.18% | AUClast from high to low ([9]; SD rats, 40 mg/kg PO, females): plasma>brain>CSF | AUClast from high to low ([9]; SD rats, 40 mg/kg PO, males): brain>plasma>CSF | AUClast Ratio Female/Male ([9]; SD rats, 40 mg/kg PO, plasma): 2.18 | C24hr/Cmax Ratio (%) ([9]; SD rats, 40 mg/kg PO, plasma, female): 1.17% | C24hr/Cmax Ratio (%) ([9]; SD rats, 40 mg/kg PO, plasma, male): 0.697% | distribution ([9]; SD rats, single PO 40 mg/kg): distributed to CSF and brain | duration of exposure in CSF and brain ([9]; SD rats, single PO 40 mg/kg): 24 h | in-life observations ([9]; SD rats, single PO 40 mg/kg): no abnormalities were observed | AUClast ([9]; SD rats, single PO 40 mg/kg, brain, female): 3394 ng·h/g | AUClast ([9]; SD rats, single PO 40 mg/kg, brain, male): 2199 ng·h/g | time of maximal concentration ([9]; SD rats, single PO 40 mg/kg, brain, males): 15 min | AUClast ([9]; SD rats, single PO 40 mg/kg, brain, mean of male and female): 2796 ng·h/g | concentration at 24 h ([9]; SD, brain, Single PO Rat 40 mg/kg, read-out: Mean Brain Concentration, Cmin = 24 h): 22.1 ng/g | AUC(0-t) [9, 21]: 124 ng·h/mL | Cmax [9, 21]: 24 ng/mL | MRT last [9, 21]: 8.41 h | Tmax ([9]; Sprague-Dawley, SD rats, single PO 40 mg/kg, CSF, female, read-out: Tmax): 60 min | AUC(0-t) [9, 22]: 18.6 ng·h/mL | Cmax [9, 22]: 7.48 ng/mL | MRT last [9, 22]: 2 h | Tmax ([9]; Sprague-Dawley, SD rats, single PO 40 mg/kg, CSF, male, read-out: Tmax): 60 min | Cmax [9, 23]: 833 ng/g | MRT last [9, 23]: 5.81 h | Tmax ([9]; Sprague-Dawley, SD rats, single PO 40 mg/kg, brain, female, read-out: Tmax): 60 min | Cmax [9, 24]: 413 ng/g | MRT last [9, 24]: 7 h | AUC(0-t) [9, 25]: 3660 ng·h/mL | Cmax [9, 25]: 934 ng/mL | MRT last [9, 25]: 5.11 h | AUC(0-t) [9, 26]: 1680 ng·h/mL | Cmax [9, 26]: 544 ng/mL | MRT last [9, 26]: 4.5 h | Tmax ([9]; both sexes, Sprague-Dawley, SD rats, single PO 40 mg/kg, plasma, males and females, read-out: Tmax (time of maximal concentration) (converted)): 15 min | Cmax [9, 27]: 623 ng/g | MRT last [9, 27]: 6.4 h | AUC(0-t) [9, 28]: 2670 ng·h/mL | Cmax [9, 28]: 739 ng/mL | MRT last [9, 28]: 4.8 h | Kp ([9]; female, Sprague-Dawley, CSF/plasma, SD rats, 40 mg/kg PO, CSF/plasma, female): 0.0338 | Kp ([9]; female, Sprague-Dawley, brain/plasma, SD rats, 40 mg/kg PO, brain/plasma, female): 0.928 | AUC(0-t) ([9]; female, Sprague-Dawley, SD rats, single PO 40 mg/kg, brain, females): 3390 ng·h/mL | crossing of the blood-brain barrier ([9]; general statement): can cross the blood-brain barrier | Kp ([9]; male, Sprague-Dawley, CSF/plasma, SD rats, 40 mg/kg PO, CSF/plasma, male): 0.011 | Kp ([9]; male, Sprague-Dawley, brain/plasma, SD rats, 40 mg/kg PO, brain/plasma, male): 1.31 | AUC(0-t) ([9]; male, Sprague-Dawley, SD rats, single PO 40 mg/kg, brain, males): 2200 ng·h/mL | Tmax ([9]; SD rats, single PO 40 mg/kg, brain, male, read-out: Tmax): 15 min | Tmax ([9]; SD rats, single PO 40 mg/kg, plasma, female, read-out: Tmax): 15 min | Tmax ([9]; SD rats, single PO 40 mg/kg, plasma, male, read-out: Tmax): 15 min | IC50 [10]: > 1000 nM | IC50 [11]: > 1000 nM | IC50 [12]: > 1000 nM | Relative Abundance (UV Peak Area % Total) [13]: 97.20% | IC50 [14]: > 1000 nM | IC50 [15]: > 1000 nM | IC50 [16]: > 1000 nM | IC50 [17]: > 1000 nM | IC50 [18]: > 1000 nM | fraction unbound [19]: < 0.07 | IC50 [20]: > 1000 nM
